The test system of this assay is L1210 leukemia ip in BDF1 mice, survival T/C. Description: NCI In Vivo Anticancer Drug Screen. Data for tumor model L1210 Leukemia (intraperitoneal) in B6D2F1 (BDF1) mice. The note with it: endpoint: mean survival time, higher = longer survival. The procedure, abridged: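 Read-out is survival time, reported as the treated-group measurement over the vehicle-control measurement.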

[1] abbreviates: dose: 100.0 mg/kg/injection, schedule: Q04DX002 (ip), vehicle: Klucel (hydroxypropylcellulose) (HPC).
The mark [2] stands for this setting: dose: 200.0 mg/kg/injection, schedule: Q04DX002 (ip), vehicle: Klucel (hydroxypropylcellulose) (HPC).
[3] abbreviates: dose: 400.0 mg/kg/injection, schedule: Q04DX002 (ip), vehicle: Klucel (hydroxypropylcellulose) (HPC).
Setting [4] is: dose: 25.0 mg/kg/injection, schedule: Q01DX009 (ip), vehicle: saline.
Setting [5] is: dose: 50.0 mg/kg/injection, schedule: Q01DX001 (ip), vehicle: saline.
The mark [6] stands for this setting: dose: 50.0 mg/kg/injection, schedule: Q01DX009 (ip), vehicle: saline.
Setting [7] is: dose: 100.0 mg/kg/injection, schedule: Q01DX009 (ip), vehicle: saline.
[8] abbreviates: dose: 100.0 mg/kg/injection, schedule: Q04DX003 (ip), vehicle: saline.
Where [9] appears, read: dose: 200.0 mg/kg/injection, schedule: Q04DX003 (ip), vehicle: saline.
Where [10] appears, read: dose: 100.0 mg/kg/injection, schedule: Q04DX003 (ip), vehicle: saline with Tween-80.
Where [11] appears, read: dose: 200.0 mg/kg/injection, schedule: Q04DX003 (ip), vehicle: saline with Tween-80.
[12] abbreviates: dose: 400.0 mg/kg/injection, schedule: Q04DX003 (ip), vehicle: saline with Tween-80.
Where [13] appears, read: dose: 50.0 mg/kg/injection, schedule: Q01DX001 (ip), vehicle: carboxymethylcellulose (CMC).
Setting [14] is: dose: 100.0 mg/kg/injection, schedule: Q01DX001 (ip), vehicle: carboxymethylcellulose (CMC).
The mark [15] stands for this setting: dose: 200.0 mg/kg/injection, schedule: Q01DX001 (ip), vehicle: carboxymethylcellulose (CMC).
Setting [16] is: dose: 100.0 mg/kg/injection, schedule: Q01DX001 (ip), vehicle: saline.

SMILES strings stand for the structures. “And” between values parts separate entries of the source, which are not always exact repeats. Equal values may be shown once. Inconclusive results and toxic doses are left out.

In the case of `NC(N)=Nc1ccc(NC(=O)c2ccc(C(=O)Nc3ccc(N=C(N)N)cc3)cc2)cc1`, the T/C was 122 % of control (dose: 1.8 mg/kg/injection, schedule: Q01DX Z (ip), vehicle: carboxymethylcellulose (CMC)); 104 % of control (dose: 3.7 mg/kg/injection, schedule: Q01DX Z (ip), vehicle: carboxymethylcellulose (CMC)); 88 % of control (dose: 7.5 mg/kg/injection, schedule: Q01DX Z (ip), vehicle: carboxymethylcellulose (CMC)).

As for `Clc1ccc2nnnn2n1`, the T/C reads like this: (dose: 12.5 mg/kg/injection, schedule: Q01DX009 (ip), vehicle: saline with Tween-80) 97 % of control; (dose: 25.0 mg/kg/injection, schedule: Q01DX009 (ip), vehicle: saline with Tween-80) 100 % of control; (dose: 50.0 mg/kg/injection, schedule: Q01DX009 (ip), vehicle: saline with Tween-80) 110 % of control; (dose: 62.5 mg/kg/injection, schedule: Q04DX003 (ip), vehicle: saline) 109 % of control; under setting [1], 115 % of control; (dose: 125.0 mg/kg/injection, schedule: Q04DX003 (ip), vehicle: saline) 109 % of control. Besides, the T/C is 115 % of control under setting [2] and 112 % of control under setting [3].

In the case of `CC(c1ccccc1)n1ccnc1CC#N` (configuration not stated), the T/C (dose: 12.5 mg/kg/injection, schedule: Q01DX009 (ip), vehicle: saline) is 109 % of control and 88 % of control; the T/C (dose: 12.5 mg/kg/injection, schedule: Q04DX002 (ip), vehicle: saline) was 91 % of control; the T/C (dose: 25.0 mg/kg/injection, schedule: Q01DX001 (ip), vehicle: saline) was 100 % of control; the T/C under setting [4] is 107 % of control and 114 % of control; the T/C (dose: 25.0 mg/kg/injection, schedule: Q04DX002 (ip), vehicle: saline) is 101 % of control and 105 % of control and 109 % of control; the T/C (dose: 25.0 mg/kg/injection, schedule: Q04DX003 (ip), vehicle: saline) was 88 % of control. Besides, the T/C is, setting by setting: under setting [5], 101 % of control; under setting [6], 97 % of control and 98 % of control; (dose: 50.0 mg/kg/injection, schedule: Q04DX002 (ip), vehicle: saline) 95 % of control and 96 % of control and 102 % of control; (dose: 50.0 mg/kg/injection, schedule: Q04DX003 (ip), vehicle: saline) 93 % of control.

Consider `O=Cc1cc([N+](=O)[O-])cc(CCl)c1O`, for which the T/C (dose: 100.0 mg/kg/injection, schedule: Q01DX009 (ip), vehicle: Klucel (hydroxypropylcellulose) (HPC)) was 90 % of control.

As to `O/N=C\C[n+]1cc2ccccc2cc1/C=N\O`, the T/C is 97 % of control under setting [4], 97 % of control under setting [6], 104 % of control under setting [7] and 98 % of control under setting [8].

For `CN(Cc1ccc([N+](=O)[O-])cc1)C(=O)Nc1ccc(S(=O)(=O)F)cc1`, the T/C reads like this: under setting [8], 98 % of control; under setting [9], 101 % of control; (dose: 400.0 mg/kg/injection, schedule: Q04DX003 (ip), vehicle: saline) 104 % of control.

On to `COc1cc(Br)c(/C=C/C(=O)O)cc1OC`, for which the T/C was 95 % of control under setting [10], 93 % of control under setting [11] and 92 % of control under setting [12].

For the compound `O=C(SCCN1CCCC1)N1c2ccccc2Sc2ccc(Cl)cc21`, the T/C runs as follows: (dose: 75.0 mg/kg/injection, schedule: Q01DX001 (ip), vehicle: carboxymethylcellulose (CMC)) 94 % of control; (dose: 150.0 mg/kg/injection, schedule: Q01DX001 (ip), vehicle: carboxymethylcellulose (CMC)) 94 % of control.

`CCCC(NC(=O)CCl)C(=O)O` (configuration not stated): the T/C by setting is: under setting [8], 96 % of control; under setting [9], 101 % of control.

For the compound `COc1cccc2c1C(=O)c1c(O)c3c(c(O)c1C2=O)C[C@@](O)(C(=O)COC(=O)Cc1ccccc1)C[C@@H]3OC1CC(N)C(O)C(C)O1` (some centres not stated), the T/C reads like this: (dose: 1.3 mg/kg/injection, schedule: Q01DX009 (ip), vehicle: saline) 152 % of control; (dose: 2.0 mg/kg/injection, schedule: Q01DX009 (ip), vehicle: saline) 167 % of control; (dose: 3.0 mg/kg/injection, schedule: Q01DX009 (ip), vehicle: saline) 173 % of control; (dose: 6.8 mg/kg/injection, schedule: Q01DX009 (ip), vehicle: saline with Tween-80) 104 % of control.

As to `COc1cc([N+](=O)[O-])c(C)cc1Nc1ccc(OC)c(OC)c1`, the T/C reads like this: (dose: 100.0 mg/kg/injection, schedule: Q01DX009 (ip), vehicle: saline with Tween-80) 105 % of control; under setting [10], 98 % of control; (dose: 200.0 mg/kg/injection, schedule: Q01DX009 (ip), vehicle: saline with Tween-80) 96 % of control; under setting [11], 93 % of control; (dose: 400.0 mg/kg/injection, schedule: Q01DX009 (ip), vehicle: saline with Tween-80) 96 % of control; under setting [12], 92 % of control.

As to `CCOC(=O)N/N=C\C(C)=N\NC(=O)OCC`, the T/C reads like this: (dose: 15.0 mg/kg/injection, schedule: Q01DX Z (ip), vehicle: carboxymethylcellulose (CMC)) 105 % of control; (dose: 30.0 mg/kg/injection, schedule: Q01DX Z (ip), vehicle: carboxymethylcellulose (CMC)) 98 % of control; (dose: 60.0 mg/kg/injection, schedule: Q01DX Z (ip), vehicle: carboxymethylcellulose (CMC)) 97 % of control and 105 % of control; (dose: 120.0 mg/kg/injection, schedule: Q01DX Z (ip), vehicle: carboxymethylcellulose (CMC)) 94 % of control and 97 % of control; (dose: 240.0 mg/kg/injection, schedule: Q01DX Z (ip), vehicle: carboxymethylcellulose (CMC)) 96 % of control; (dose: 480.0 mg/kg/injection, schedule: Q01DX Z (ip), vehicle: carboxymethylcellulose (CMC)) 87 % of control.

On to `CCCCCCCCCC(CC)(CCCCCCC)CCCCCCCC` (configuration not stated), for which the T/C was 103 % of control (dose: 100.0 mg/kg/injection, schedule: Q01DX001 (ip), vehicle: saline with Tween-80); 99 % of control (dose: 200.0 mg/kg/injection, schedule: Q01DX001 (ip), vehicle: saline with Tween-80); 103 % of control (dose: 400.0 mg/kg/injection, schedule: Q01DX001 (ip), vehicle: saline with Tween-80).

In the case of `O=C(CC1(O)C(=O)Nc2ccc(Br)cc21)c1ccc2c(c1)OCO2` (configuration not stated), the T/C under setting [1] was 92 % of control, the T/C under setting [2] was 104 % of control and the T/C under setting [3] was 95 % of control.

As for `CSc1nnc2scnn12`, the T/C runs as follows: under setting [13], 104 % of control; under setting [14], 104 % of control; under setting [15], 101 % of control.

For the compound `O=C(N/C(=C/c1ccc([N+](=O)[O-])cc1)C(=O)c1ccccc1)c1ccc([N+](=O)[O-])cc1`, the T/C is, setting by setting: under setting [5], 101 % of control; under setting [16], 103 % of control; (dose: 200.0 mg/kg/injection, schedule: Q01DX001 (ip), vehicle: saline) 97 % of control; (dose: 400.0 mg/kg/injection, schedule: Q01DX001 (ip), vehicle: saline) 90 % of control.

Consider `CC1CN=C(N)NC1=O` (configuration not stated), for which the T/C runs as follows: (dose: 100.0 mg/kg/injection, schedule: Q01DX Z (ip), vehicle: saline) 104 % of control; (dose: 200.0 mg/kg/injection, schedule: Q01DX Z (ip), vehicle: saline) 119 % of control.

Take `Cc1cc([N+](=O)[O-])sc1[N+](=O)[O-]`: the T/C reads like this: under setting [4], 108 % of control; under setting [6], 97 % of control; under setting [7], 110 % of control; under setting [8], 101 % of control.

`O=C(O)c1ccc(N/N=C/C(F)(F)F)cc1`: the T/C is 95 % of control and 98 % of control under setting [4]; 110 % of control under setting [5]; 93 % of control and 106 % of control under setting [6]; 96 % of control under setting [16]; 95 % of control and 87 % of control under setting [7]; 106 % of control and 109 % of control (dose: 100.0 mg/kg/injection, schedule: Q04DX002 (ip), vehicle: saline). The T/C (dose: 200.0 mg/kg/injection, schedule: Q04DX002 (ip), vehicle: saline) is 96 % of control.

In the case of `O=S(=O)(c1ccc(I)cc1)c1ccc(I)cc1`, the T/C reads like this: under setting [13], 104 % of control; under setting [14], 95 % of control; under setting [15], 88 % of control; (dose: 400.0 mg/kg/injection, schedule: Q01DX001 (ip), vehicle: carboxymethylcellulose (CMC)) 95 % of control.

Source of the values: PubChem BioAssay AID248 (DTP/NCI, 2004).
